Values quoted from earlier work in patent publication US11439593B2, “Composition for treating onychomycosis” (NCP NewCare Products GmbH, priority 2017, dated 2022).
Where two headings read alike, the source gives them in different places.

SMILES | stability in acidic environment (pH of about 5) | stability in acidic environment (pH of about 3)
Clc1ccccc1C(c1ccccc1)(c1ccccc1)n1ccnc1 [clotrimazole] | stable | 
CN(C/C=C/C#CC(C)(C)C)Cc1cccc2ccccc12 [terbinafine] |  | stable

Further lines, results first:

stability in acidic environment (pH of about 5) | stability in acidic environment (pH of about 3) | SMILES
stable |  | c1ccc(-c2ccc(C(c3ccccc3)n3ccnc3)cc2)cc1 (centres unmarked) [bifonazole]
 | stable | Cc1cc(C2CCCCC2)n(O)c(=O)c1 [ciclopirox]
 | stable | Clc1ccc(COC(Cn2ccnc2)c2ccc(Cl)cc2Cl)c(Cl)c1 (centres unmarked) [miconazole]
